Experimental data reported in US20220324909A1, “THERAPEUTIC PEPTIDES” (COHBAR, INC., priority 2019, published 2022).
Non-standard residues stand in square brackets, D forms with d. No end group written: not given here.

What was measured:
C2C12 cells [1] = experiment: Glucose utilization in cultured C2C12 cells and insulin dependence; format: cell-based, mouse; conditions: 22 h; for Glucose Utilization, Percent of Control Activity No Insulin: peptide 10 μM alone, glucose in medium relative to untreated cells; for Glucose Utilization, Percent of Control Activity With Insulin: peptide 10 μM with 5-20 nM insulin, glucose in medium relative to insulin treated cells
Excerpt: The effect of the peptides on glucose homeostasis can be assessed using an assay to monitor glucose utilization by cultured cells such as mouse myotubes. […] C2C12 mouse muscle cell line was purchased from Millipore Sigma (Saint Louis, Mo.). […] Three days after plating the medium was removed and with Differentiation Medium (DMEM/low glucose (1 g/L)+2% Horse Serum+antibiotics) added. […] After 5 days of differentiation, the medium was removed from myotube cultures and replaced with Assay Medium (DMEM/low glucose (1 g/L)+antibiotics). […] Following the 5 h incubation the medium was removed and fresh Assay Medium containing compounds added; 10 μM peptide in absence or presence of 5-20 nM insulin, or 1 mM metformin as a potent stimulator of glucose utilization. […] Following 22 h incubation, conditioned medium from each well was transferred to a fresh 96-well plate. Glucose concentrations in the medium were determined using a Glucose Assay kit (Abcam; Cambridge, Mass.) according to the manufacturer's instructions; absorbance measured using a Cytation 3 plate reader at 570 nm (BioTek, Winooski, Vt.). Absorbance values were expressed as percent control activity relative to untreated treated cells (no insulin) for 10 μM peptide alone or 5-20 nM insulin treated cells (with insulin) for 10 μM peptide in presence of 5-20 nM insulin. Untreated cells were used as reference for basal glucose utilization. The relative standard deviation from plate to plate of untreated control was <10%. Metformin at 1 mM was used as a potent control for increasing glucose utilization. Glucose levels for metformin (1 mM) treatment were <10% of the untreated control value. Data are presented as averages values from 2-3 independent experiments with each data point performed in triplicate.

C2C12 cells [2] = experiment: Cell proliferation in C2C12 cells (Cyquant DNA dye binding); format: cell-based, mouse; conditions: peptide 10 μM, 72 hours with readdition every 24 hours, relative to 0.1% DMSO control
Method: The effect of the peptides on cell proliferation was assessed using a DNA dye binding assay in cultured cells such as mouse myoblast cells. Peptides were initially prepared as 10 mM stock in DMSO, diluted to 1 mM in H2O, and added at a final concentration of 10 μM (0.1% DMSO). Lovastatin was used as a growth arrest control at final concentration of 10 μM. […] C2C12 cells were grown in DMEM supplemented with 20% FBS with 100 IU/ml penicillin and 100 μg/ml streptomycin. […] C2C12 cells were seeded at 800 cells per well on 96-well plates. […] Cell proliferation was determined using Cyquant Direct Nucleic Acid Stain (Thermo Fisher Scientific, Waltham, Mass.) according to the manufacturer's instructions. Fluorescence for each sample well on the plate was measured using a Cytation 3 plate reader at Ex/Em=495/535 nm (BioTek, Winooski, Vt.). Activity was calculated relative to 0.1% DMSO untreated control. The relative standard deviation for the lovastatin control was <27%. The cell proliferation for the lovastatin control was <25% of the value for untreated control.

C2C12 cells [3] = experiment: Cellular ROS levels induced by TBHP in C2C12 cells (DCFDA); format: cell-based, mouse; conditions: peptide 10 μM 18-20 hours, then TBHP 100 μM 1 hour; relative to TBHP control
Method: The protective or synergistic effect of the peptides on cellular levels of reactive oxygen species (ROS) induced by oxidative stress can be assessed using an assay of ROS in cultured cells such as mouse myoblasts exposed to a suitable oxidative stress. Peptides were initially prepared as 10 mM stock in DMSO, diluted to 1 mM in H2O, and added at a final concentration of 10 μM (0.1% DMSO). […] TBHP was used at final concentration of 100 μM. Sulforaphane at final concentration of 10 μM was used as a protective control against TBHP induced ROS production. […] C2C12 cells were grown in DMEM supplemented with 20% FBS with 100 IU/ml penicillin and 100 μg/ml streptomycin. […] C2C12 cells were seeded at 7,500 cells per well on 96-well plates. […] After 18-20 hours of incubation the cells were loaded with DCFDA for 45 min. TBHP at 100 μM was then added to the appropriate wells for 1 hour. ROS activity was determined using a DCFDA Cellular ROS Detection Assay kit (Abcam, Cambridge, Mass.) according to the manufacturer's instructions. Fluorescence in each sample well on the plate was measured using a Cytation 3 plate reader at Ex/Em=485/535 nm (BioTek, Winooski, Vt.). Activity was calculated relative to TBHP control. The relative standard deviation of the sulforaphane control was <20%. The ROS level produced by the sulforaphane control in the presence of TBHP was 52% of the TBHP control.

C2C12 cells [4] = experiment: ATP levels in cultured C2C12 cells (CellTiter-Glo); format: cell-based, mouse; conditions: peptide 10 μM, 3 days with readdition every 24 hours, relative to 0.1% DMSO control
Method: The effect of the peptides on cellular metabolism can be assessed using an assay of ATP levels in cultured cells such as mouse myoblast cells. Peptides were initially prepared as 10 mM stock in DMSO, diluted to 1 mM in H2O, and used at a final concentration of 10 μM (0.1% DMSO). […] Lovastatin was prepared as 10 mM stock in 70% Ethanol and used at final concentration of 10 μM containing 0.1% DMSO. CellTiter-Glo® Assay kit was purchased from Promega (Madison, Wis.). […] C2C12 cells were grown in DMEM medium supplemented with 20% FBS with 100 IU/ml penicillin and 100 μg/ml streptomycin. […] C2C12 cells were seeded at 800 cells per well on 96-well plates. […] ATP levels were determined using a CellTiter-Glo Assay kit according to the manufacturer's instructions. Luminescence for each sample well on the plate was measured using a Cytation 3 plate reader (BioTek, Winooski, Vt.). Activity was calculated relative to 0.1% DMSO treated control. The relative standard deviation of the result for the 0.1% DMSO treated control was <5%. […] ATP levels for treatment with lovastatin (10 μM) were <50% of the 0.1% DMSO treated control value.

3T3-L1 mouse adipocytes = experiment: Free fatty acid levels in cultured 3T3-L1 mouse adipocytes and insulin dependence (Example 17); format: cell-based; conditions: isoproterenol 0.1 nM; for Free Fatty Acid Levels, Percent of Isoproterenol Control Activity No Insulin: peptide 10 μM alone, relative to isoproterenol treated cells; for Free Fatty Acid Levels, Percent of Isoproterenol Control Activity With Insulin: peptide 10 μM with 0.25 nM insulin, relative to 0.25 nM insulin treated cells

Compound	Glucose Utilization, Percent of Control Activity No Insulin (C2C12 cells [1]) [%]	Glucose Utilization, Percent of Control Activity With Insulin (C2C12 cells [1]) [%]	Cell Proliferation, Percent of Control (C2C12 cells [2]) [%]	Cellular ROS Levels Induced by TBHP, Percent of Control (C2C12 cells [3]) [%]	ATP Levels, Percent of Control Activity (C2C12 cells [4]) [%]	Free Fatty Acid Levels, Percent of Isoproterenol Control Activity No Insulin (3T3-L1 mouse adipocytes) [%]	Free Fatty Acid Levels, Percent of Isoproterenol Control Activity With Insulin (3T3-L1 mouse adipocytes) [%]
8 (RRMMGMVFQCLCG[dA]; cysteine pairing not given here) [compound 8]	90.8	85.5	98.1	102.1	99.5	106	57.8
10 (RRMMGMVYQCLCG[dA]; cysteine pairing not given here) [compound 10]	102.6	76.3	101.5	102.3	100.9	97.9	48.7
11 (RRMMGMVAQCLCGA) [compound 11]	107.2	84.5	88.1	100.6	98.0	104	58.5
12 (RRMMGMVEQCLCG[dA]; cysteine pairing not given here) [compound 12]	102.3	84.5	119.3	105	102.6	103	54.6
13 (RRMMGMVFQELCG[dA]) [compound 13]	104.4	97.8	90.0	106.8	102.8	105	56.4
14 (RRMMGMVFQCLEG[dA]) [compound 14]	102.4	112.3	97.2	105.1	102.1	100	51.0
16 (RRMMGMVFQCLSG[dA]) [compound 16]	99.7	88.4	89.6	106.6	94.7	110	63.0
17 (RRMMGMVFQSLSG[dA]) [compound 17]	102.6	96.2	89.1	113.6	100.0	98.4	87.7
18 (RRXXGXVFQCLCGA; (3)..(3) Xaa is Norleucine; (4)..(4) Xaa is Norleucine; (6)..(6) Xaa is Norleucine; (14)..(14) D-Ala) [compound 18]	103.6	122.1	74.9	109.4	95.5	110	81.1
19 (RRMVFQCLCG[dA]; cysteine pairing not given here) [compound 19]	100.1	76.5	92.3	92	93.6	105	79.0
CSCC[C@H](NC(=O)CNC(=O)[C@H](CCSC)NC(=O)[C@H](CCSC)NC(=O)[C@H](CCCNC(=N)N)NC(=O)[C@H](CCCNC(=N)N)NC(=O)[C@@H](N)CCSC)C(=O)N[C@H](C(=O)N[C@@H](Cc1ccccc1)C(=O)N[C@@H](CCC(N)=O)C(=O)N[C@@H](CS)C(=O)N[C@@H](CC(C)C)C(=O)N[C@@H](CS)C(=O)NCC(=O)N[C@@H](CC(C)C)C(=O)O)C(C)C [compound 7]	98.1	100.7	94.0	98.6	106.6	102	71.3
CSCC[C@H](NC(=O)CNC(=O)[C@H](CCSC)NC(=O)[C@H](CCSC)NC(=O)[C@H](CCCNC(=N)N)NC(=O)[C@@H](N)CCCNC(=N)N)C(=O)N[C@H](C(=O)N[C@@H](Cc1ccccc1)C(=O)N[C@@H](CCC(N)=O)C(=O)N[C@@H](CO)C(=O)N[C@@H](CC(C)C)C(=O)N[C@@H](CS)C(=O)NCC(=O)N[C@H](C)C(=O)O)C(C)C [compound 15]	103	106.9	93.5	105.9	100.4	109	89.0
